Data as given in patent publication US6087337A, “Method for treating benign and malignant proliferative skin disease” (Biomeasure Inc., priority 1993, dated 2000).

What was measured:
B16-F10 melanoma = experiment: Response of intradermally implanted B16-F10 melanoma xenografts to topically applied Somatuline BIM-23014C; type: in vivo, BALB/c derived athymic nude female mice
Description: Response of Intradermally Implanted B16-F10 Melanoma Xenografts to Topically Applied Somatuline BIM-23014C
Eighteen BALB/c derived athymic nude female mice were implanted intradermally (ID), on the right flank, with a 0.02 to 0.05 ml suspension of in vitro propagated B16-F10 melanoma cells suspended in a normal saline solution. Implantation was done with a 23 gauge needle attached to a 1.0 ml syringe on day 0. Such an intradermal implant of the murine B16-F10 melanoma is essentially orthotopic and gives rise to an extremely fast growing tumor. By day 2, flat melanotic growths were evident at the injection site. The lesions resembled in situ melanomas.
Somatuline (D-β-Nal-Cys-Tyr-D-Trp-Lys-Val-Cys-Thr-NH2, available from Biomeasure, Inc. under the product code BIM-23014C) was added to a 50% DMSO in saline solution at a concentration of 10 mgs/ml. After wiping the skin with a gauze pad wet with isopropyl alcohol, a drop (approximately 0.05 ml) of the Somatuline solution was applied to the skin surface of the mice over the melanotic lesion. The solution was rubbed into the skin for approximately 1 minute with a latex gloved (Baxter Scientific Products/Flexam) finger. Well over half of the drop of Somatuline was not absorbed and was lost after the rubbing-in procedure. The controls were treated identically with 50% DMSO in saline solution without any somatostatin analog. Topical treatments were applied twice daily for 11 days beginning on day 3 post implantation.

[1] = tested on: insulin, glucagon, and growth hormone release; settings: times more potent than naturally occurring somatostatin; cited from earlier work

Row | Compound | Tumor Wt. (mgs) Day 12 (B16-F10 melanoma; 0.05 ml topical of DMSO/Saline vehicle containing 10 mg/ml, b.i.d., q.d. 3-14, intradermal B16-F10 implant in nude mice, day 12) [mgs] | growth of the melanotic lesion (tumor growth curves FIG. 1, photographs FIG. 2, days 4, 7, 11) (B16-F10 melanoma; topical Somatuline solution 10 mgs/ml in 50% DMSO in saline, twice daily, compared to control mice) | % T/C (B16-F10 melanoma; tumor weight day 12, treated vs DMSO/Saline vehicle control, 0.05 ml topical, 10 mg/ml, b.i.d., q.d. 3-14) [%] | potency relative to naturally occurring somatostatin for the inhibition of insulin, glucagon, and growth hormone release [1]
1 | CC(C)[C@@H]1NC(=O)[C@H](CCCCN)NC(=O)[C@@H](Cc2c[nH]c3ccccc23)NC(=O)[C@H](Cc2ccc(O)cc2)NC(=O)[C@@H](NC(=O)[C@H](N)Cc2ccc3ccccc3c2)CSSC[C@@H](C(=O)N[C@H](C(N)=O)[C@@H](C)O)NC1=O [BIM-23014C, D-β-Nal-Cys-Tyr-D-Trp-Lys-Val-Cys-Thr-NH2] | 185.9 ± 47 | clear growth inhibition | 35 | 
2 | cyclo(N-Me-Ala-Tyr-D-Trp-Lys-Val-Phe) |  |  |  | 50-100 times
